# Assay results taken from patent US6756409B2, “Phenoxyphenyl alkanesulphonates” (priority 2001, dated 2004).
# Tests used:
# [1] = Microsomal stability investigations; format: in vitro ADME; conditions: maximum possible bioavailability extrapolated from rat liver microsomes, 37° C., 15 minutes
# Description: 4. Microsomal Stability Investigations
# The metabolic stability of the compounds according to the invention can be measured in rat liver microsomes (in analogy to J. Pharmacol. Exp. Ther. 1997, 283, 46-58).
# To determine the microsomal stability and extrapolate to the maximum possible bioavailability (Fmax) owing to the first-pass effect in the liver (phase 1 reactions), the substance is incubated in low concentration with microsomal protein, with addition of cofactors, at 37° C. for 15 minutes.
# The incubation and the sampling take place on a modified automatic pipettor from Canberra Packard.
# rat CB1 receptor = target: T1, rat CB1 receptor (Rattus norvegicus, UniProt P20272); assay: Rat CB1 luciferase reporter gene test; format: cell-based; conditions: rat CHOCB1 reporter cell line, forskolin-stimulated luciferase activity
# T1 construct: expressed in transfected cells; host or cells: CHO (CHOluc9-derived reporter line, by analogy with the CB2 line)
# Description: 1. Rats CB1 Luciferase Reporter Gene Test
# Stock cultures of a rat CHOCB1 reporter cell line were prepared by the method described in WO-A-98/37061, page 55 et seq.
# The following test protocol was used for the substance screening: the stock cultures were cultivated in 50% of Dulbecco's modified Eagle medium/50% F-12 (DMEM/F12) with 10% FCS at 37° C. under 10% CO2 and split 1:10 after 2 to 3 days in each case. Test cultures were seeded with 5000 cells per well in 96-well plates and cultured at 37° C. for 70 hours. The cultures were then cautiously washed with phosphate-buffered saline and reconstituted with serum-free Ultra-CHO medium (Bio-Whittaker). The substances dissolved in DMSO were diluted 1× in medium and pipetted into the test cultures (maximum DMSO final concentration in test mixture: 0.5%). 20 minutes later, forskolin was added and the cultures were then incubated in an incubator at 37° C. for 3 hours. […] Immediately thereafter luciferase substrate solution (2.5 mM ATP, 0.5 mM luciferin, 0.1 mM coenzyme A, 10 mM tricine, 1.35 mM MgSO4, 15 mM DTT, pH 7.8) was added and briefly shaken, and the luciferase activity was measured using a Hamamatsu camera system. […]
# The IC50 values were calculated using the GraphPadPrism program (Hill equation, specifically: one-site competition).
# [2] = test system: chronic mechanical hyperalgesia in axotomized rats; assay: Axotomy of sciatic branches in the rat (chronic pain model); format: in vivo; conditions: orally, acute administration, 60 minutes before the test
# Description: 7. Axotomy of Sciatic Branches in the Rat (Chronic Pain Model)
# Under pentobarbital anaesthesia, the trifurcation of a sciatic nerve is exposed, and the peroneal and tibial branches are axotomized after the nerves have been ligated proximal of the axotomy site. Control animals undergo a sham operation. After the operation, the axotomized animals develop chronic mechanical hyperalgesia. This hyperalgesia is tested, comparing with sham-operated animals, with the aid of a pressure transducer (electronic von Frey anesthesiometer, IITC Inc.—Life Science Instruments, Woodland Hills, Calif., USA).
# The substance is administered by various administration routes (i.v., i.p., orally, i.t., i.c.v., transdermally) at various times before the pain testing.
# CB1 receptor = target: T2, CB1 receptor (Rattus norvegicus, UniProt P20272); assay: Rat hypothermia agonism test; format: in vivo; conditions: oral administration
# T2 construct: from tissue; host or cells: whole animal (rat), in vivo
# Description: The in vivo agonistic effect on the CB1 receptor was examined in the rat hypothermia assay.
# Five minutes after determining the basal body temperature via an oesophageal temperature probe, the test substance is administered (orally). A control group receives, likewise orally, only the solvent for the test substances (Cremophors EL 1-10%+distilled water). The body temperature is measured 120 and 240 minutes after oral administration. The size of the group for each dose is 5-7 animals (rats).
# Rat Hypothermia Agonism Test
# [3] = Pharmacokinetics in the rat; format: in vivo; conditions: for AUCstand / Cmax,stand: standardized to 1 mg/kg; for half-life: terminal half-life
# Description: 5. Pharmacokinetics in the Rat
# The substance is infused through a Braunüle in a lateral tail vein directly into the blood stream over 15 minutes. A calibrated 20 ml syringe is used for accurate administration of the chosen dose and volume. A Braun Melsungen No. 152440/1 pump is used for the infusion.
# The substance is administered as bolus by gavage.
# Blood samples are collected from catheterized animals (jugular vein) in heparinized tubes. The blood is centrifuged and the plasma is prepared in a suitable manner for analysis (LC-MS-MS). The plasma is stored at <−15° C. until analysed.
# AUCstand: the area, standardized to a dose of 1 mg/kg, under the plasma concentration/time curve;
# Cmax,stand: the maximum plasma concentration after a single administration, standardized to a dose of 1 mg/kg;
# tmax: the time at which the maximum plasma concentration is reached after a single dose;
# t1/2: terminal half-life;
# F: bioavailability; in this case the percentage, compared with i.v. administration, of the dose which is systemically available;
# VSS: apparent volume of distribution at the steady state.
# T2 sequence (P20272 whole entry): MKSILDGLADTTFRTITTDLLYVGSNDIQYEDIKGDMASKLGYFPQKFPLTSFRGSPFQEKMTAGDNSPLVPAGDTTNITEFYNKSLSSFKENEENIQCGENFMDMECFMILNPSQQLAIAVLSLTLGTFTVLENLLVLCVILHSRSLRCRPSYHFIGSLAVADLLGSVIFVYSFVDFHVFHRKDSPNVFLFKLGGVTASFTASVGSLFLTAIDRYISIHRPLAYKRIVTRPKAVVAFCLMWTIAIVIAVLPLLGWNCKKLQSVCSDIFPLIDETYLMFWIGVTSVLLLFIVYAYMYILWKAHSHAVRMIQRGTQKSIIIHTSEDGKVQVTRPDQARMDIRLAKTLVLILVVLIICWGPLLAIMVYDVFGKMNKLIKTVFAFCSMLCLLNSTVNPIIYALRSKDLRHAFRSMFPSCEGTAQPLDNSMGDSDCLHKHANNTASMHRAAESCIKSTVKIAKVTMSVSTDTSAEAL
# T1 sequence (P20272 whole entry): as above
smiles,measurement,setting,value
Cc1c(Cl)cccc1Oc1cccc(OS(=O)(=O)CCCC(F)(F)F)c1 [Example 15],Fmax,[1],4%
O=S(=O)(CCCC(F)(F)F)Oc1cccc(Oc2ccccc2OC(F)(F)F)c1 [Example 17],IC50,rat CB1 receptor,0.81 nM
same,Fmax,[1],40%
O=S(=O)(CCCC(F)(F)F)Oc1cccc(Oc2cccc(C(F)(F)F)c2Cl)c1 [Example 22],minimally effective dose reducing hyperalgesia,[2],1 mg/kg
same,ED−1° C. (effective dose for reducing the body temperature by 1° C.),CB1 receptor,10 mg/kg
same,AUCstand,"[3]; i.v. infusion, dose 0.3 mg/kg",0.307 kg·h/L
same,"Cmax,stand","[3]; i.v. infusion, dose 0.3 mg/kg",0.5978 kg/L
same,F,"[3]; oral, dose 3 mg/kg, bioavailability compared with i.v. administration",33%
same,AUCstand,"[3]; oral, dose 3 mg/kg",0.102 kg·h/L
same,"Cmax,stand","[3]; oral, dose 3 mg/kg",0.0198 kg/L
same,Vd,"[3]; plasma, iv, i.v. infusion, dose 0.3 mg/kg, apparent volume of distribution at steady state, read-out: VSS",4.12 L/kg
same,half-life,"[3]; plasma, iv, i.v. infusion, dose 0.3 mg/kg",1.6 h
same,Tmax,"[3]; plasma, oral, dose 3 mg/kg",2.29 h
same,half-life,"[3]; plasma, oral, dose 3 mg/kg",2.36 h
